The subject of one assay is Klebsiella pneumoniae. Briefly: In vitro antibacterial activity against Klebsiella pneumoniae assessed as growth inhibition after 17 hrs by serial two-fold dilution technique. It is filed as functional.
Assay [1] concerns Streptococcus pasteurianus. Briefly: In vitro antibacterial activity against Streptococcus pasteurianus assessed as growth inhibition after 17 hrs by serial two-fold dilution technique. It is filed as functional.
For another assay, the system named is Streptococcus pneumoniae. The assay is described as follows: In vitro antibacterial activity against Streptococcus pneumoniae assessed as growth inhibition after 17 hrs by serial two-fold dilution technique. In kind it is functional.
The test system of assay [2] is Staphylococcus aureus. Briefly: In vitro antibacterial activity against benzylpenicillin-resistant Staphylococcus aureus assessed as growth inhibition after 17 hrs by serial two-fold dilution technique. In kind it is functional.
In assay [3] the test system is Staphylococcus aureus. The assay is described as follows: In vitro antibacterial activity against Staphylococcus aureus assessed as growth inhibition after 17 hrs by serial two-fold dilution technique. In kind it is functional.
The next assay concerns Proteus mirabilis. Briefly: In vitro antibacterial activity against Proteus mirabilis assessed as growth inhibition after 17 hrs by serial two-fold dilution technique. In kind it is functional.
Assay [4] relates to Streptococcus pyogenes. The assay is described as follows: In vivo antibacterial activity against Streptococcus pyogenes infected in po dosed albino CD-1 mouse assessed as protection against bacterial infection by measuring host survival administered at 1 hr and 4 hrs after infection. In kind it is functional.
Assay [5] relates to Salmonella. The assay is described as follows: In vivo antibacterial activity against Salmonella schottmuelleri infected in sc dosed albino CD-1 mouse assessed as protection against bacterial infection by measuring host survival administered at 1 hr and 4 hrs after infection. In kind it is functional.
Assay [6] concerns Escherichia coli. The assay is described as follows: In vivo antibacterial activity against Escherichia coli infected in sc dosed albino CD-1 mouse assessed as protection against bacterial infection by measuring host survival administered at 1 hr and 4 hrs after infection. It is filed as functional.
Assay [7] has as its system Escherichia coli. Briefly: In vitro antibacterial activity against Escherichia coli assessed as growth inhibition after 17 hrs by serial two-fold dilution technique. It is filed as functional.
In assay [8] the test system is Staphylococcus epidermidis. The assay is described as follows: In vitro antibacterial activity against benzylpenicillin-resistant Staphylococcus epidermidis assessed as growth inhibition after 17 hrs by serial two-fold dilution technique. In kind it is functional.
For assay [9], the system named is Streptococcus pyogenes. The assay is described as follows: In vitro antibacterial activity against Streptococcus pyogenes assessed as growth inhibition after 17 hrs by serial two-fold dilution technique. It is filed as functional.
For assay [10], the system named is Streptococcus pasteurianus. Briefly: In vivo antibacterial activity against Streptococcus pasteurianus infected in sc dosed albino CD-1 mouse assessed as protection against bacterial infection by measuring host survival administered at 1 hr and 4 hrs after infection. In kind it is functional.
In assay [11] the test system is Streptococcus pyogenes. Briefly: In vivo antibacterial activity against Streptococcus pyogenes infected in sc dosed albino CD-1 mouse assessed as protection against bacterial infection by measuring host survival administered at 1 hr and 4 hrs after infection. In kind it is functional.
Assay [12] concerns Salmonella. The assay is described as follows: In vitro antibacterial activity against Salmonella schottmuelleri assessed as growth inhibition after 17 hrs by serial two-fold dilution technique. In kind it is functional.
A further assay has as its system Pseudomonas aeruginosa. Briefly: In vitro antibacterial activity against cephalosporins-resistant Pseudomonas aeruginosa assessed as growth inhibition after 17 hrs by serial two-fold dilution technique. It is filed as functional, organism-based.
The test system of the next assay is Serratia marcescens. The assay is described as follows: In vitro antibacterial activity against cephalosporins-resistant Serratia marcescens assessed as growth inhibition after 17 hrs by serial two-fold dilution technique. It is filed as functional, organism-based.
Another assay concerns Klebsiella aerogenes. The assay is described as follows: In vitro antibacterial activity against cephalosporins-resistant Enterobacter aerogenes assessed as growth inhibition after 17 hrs by serial two-fold dilution technique. In kind it is functional, organism-based.
Another assay concerns Proteus vulgaris. Briefly: In vitro antibacterial activity against cephalosporins-resistant Proteus vulgaris assessed as growth inhibition after 17 hrs by serial two-fold dilution technique. It is filed as functional, organism-based.
Another assay has as its system Enterobacter cloacae. Briefly: In vitro antibacterial activity against cephalosporins-resistant Enterobacter cloacae assessed as growth inhibition after 17 hrs by serial two-fold dilution technique. It is filed as functional, organism-based.
Another assay deals with Providencia stuartii. Briefly: In vitro antibacterial activity against cephalosporins-resistant Providencia stuartii assessed as growth inhibition after 17 hrs by serial two-fold dilution technique. In kind it is functional, organism-based.

By MIC is commonly meant the smallest concentration in the dilution series that meets the test's criterion for growth inhibition. By ED50 is commonly meant the dose that gives a 50% effect, or the effect in half of the subjects.

Converted amounts (≈) assume the structure as drawn. The source made the active and inactive calls. A value given as a limit tells only on which side of the number the result lay.

In the case of `CC1=C(C(=O)O)N2C(=O)[C@@H](NC(=O)[C@H](N)c3ccccc3)[C@H]2SC1` [CEPHALEXIN ANHYDROUS], the MIC is 3.1 µg/mL (≈ 8.92 µM) in the assay with Klebsiella pneumoniae; 1.6 µg/mL (≈ 4.61 µM) in assay [1]; above 100 µg/mL in the assay with Streptococcus pneumoniae; 6.2 µg/mL (≈ 17.8 µM) in the assay on Staphylococcus aureus [2]; 1.6 µg/mL (≈ 4.61 µM) with Staphylococcus aureus [3]; 25 µg/mL (≈ 72 µM) with Proteus mirabilis. Besides, the MIC in the assay with Escherichia coli [7] amounted to 6.2 µg/mL (≈ 17.8 µM); in assay [8] it was 12.5 µg/mL (≈ 36 µM); in the assay with Streptococcus pyogenes [9], 0.8 µg/mL (≈ 2.3 µM); in the assay on Salmonella [12] it was 6.2 µg/mL (≈ 17.8 µM). In addition, the ED50 is 1.2 mg/kg in the assay with Streptococcus pyogenes [4]; 8.2 mg/kg in the assay on Salmonella [5]; 5.6 mg/kg in the assay with Escherichia coli [6]; 38.7 mg/kg in [10]; 3.4 mg/kg in the assay with Streptococcus pyogenes [11].

For `N[C@@H](C(=O)N[C@@H]1C(=O)N2C(C(=O)O)=C(Cn3ccccc3=O)CS[C@H]12)c1ccccc1`, the MIC was 6.2 µg/mL (≈ 14.1 µM) in the assay on Klebsiella pneumoniae; 0.2 µg/mL (≈ 0.454 µM) in assay [1]; 50 µg/mL (≈ 114 µM) in the assay on Streptococcus pneumoniae; 6.2 µg/mL (≈ 14.1 µM) in the assay with Staphylococcus aureus [2]; 1.6 µg/mL (≈ 3.63 µM) in the assay with Staphylococcus aureus [3]; above 100 µg/mL in the assay with Proteus mirabilis. Moreover, the MIC with Escherichia coli [7] turned out to be 25 µg/mL (≈ 56.8 µM); in [8] it was 6.2 µg/mL (≈ 14.1 µM); with Streptococcus pyogenes [9], 0.8 µg/mL (≈ 1.82 µM); in the assay on Salmonella [12] it was 12.5 µg/mL (≈ 28.4 µM). For the same compound, the “growth inhibition (GI)” value in the assay on Pseudomonas aeruginosa, with Serratia marcescens, with Klebsiella aerogenes, in the assay with Proteus vulgaris, in the assay with Enterobacter cloacae and in the assay with Providencia stuartii was “inactive” in each case. In addition, the ED50 was above 8 mg/kg with Streptococcus pyogenes [4]; 10 mg/kg in the assay with Salmonella [5]; 8.4 mg/kg in the assay on Escherichia coli [6]; 14 mg/kg in assay [10]; above 0.5 mg/kg with Streptococcus pyogenes [11].

Regarding `N[C@@H](C(=O)N[C@@H]1C(=O)N2C(C(=O)O)=C(Cn3ccc(=O)cc3)CS[C@H]12)c1ccccc1`, the MIC was found to be 12.5 µg/mL (≈ 28.4 µM) with Klebsiella pneumoniae; 0.4 µg/mL (≈ 0.908 µM) in [1]; 100 µg/mL (≈ 227 µM) in the assay on Streptococcus pneumoniae; 50 µg/mL (≈ 114 µM) in the assay with Staphylococcus aureus [2]; 3.1 µg/mL (≈ 7.04 µM) in the assay with Staphylococcus aureus [3]; 50 µg/mL (≈ 114 µM) in the assay on Proteus mirabilis. The minimal inhibitory concentration (MIC) in the assay on Escherichia coli [7] was 12.5 µg/mL (≈ 28.4 µM); in assay [8] it was 25 µg/mL (≈ 56.8 µM); in the assay with Streptococcus pyogenes [9] it was 1.6 µg/mL (≈ 3.63 µM); in the assay on Salmonella [12] it was 12.5 µg/mL (≈ 28.4 µM). For the same compound, the “growth inhibition (GI)” value in the assay on Pseudomonas aeruginosa, in the assay on Serratia marcescens, with Klebsiella aerogenes, in the assay with Proteus vulgaris, with Enterobacter cloacae and in the assay with Providencia stuartii was “inactive” throughout. Moreover, the 50% effective dose (ED50) in the assay with Streptococcus pyogenes [4] is above 8 mg/kg; in the assay with Salmonella [5], 5 mg/kg; in the assay on Escherichia coli [6] it was 4.6 mg/kg; in the assay on Streptococcus pyogenes [11], above 0.5 mg/kg.
